According to article PMC9068772, “Discovery of first-in-class nanomolar inhibitors of heptosyltransferase I reveals a new aminoglycoside target and potential alternative mechanism of action” (Scientific Reports, 2022):
In brackets after ≈: the same amount, converted by molar mass. Entries after “also recorded” stand apart in the source; their conditions may differ.

Legend:
E. coli K12 = experiment: Growth challenge assay, 96-well plate; type: cell-based; details: for Inflection point in cell viability: E. coli K12, growth rate, Fig. 9; for Effect on growth of E. coli K12: increasing concentrations, 18-h period
Procedure: (§1) The assays were prepared by plating E. coli K12 onto an LB-agar plate and grown overnight (12–18 h)[60]. A colony forming unit was chosen to inoculate 10 mL of fresh LB media in a tightly capped 15 mL falcon tube and placed in an incubator (no agitation) at 37 °C for exactly 24 h to increase the number of viable cells for inoculation of the plate and thusly reproducibility in highly variable growth patterns. A 96-well plate was then filled with a variety of inhibitor concentrations taken from stock solutions made up in ultra-pure water allowing for one row to remain free of the inhibitor. Each inhibitor concentration was given 3-wells to ensure a triplicate of data is collected at once. With the same fresh media used to make the overnight culture, the overnight growths were added to the plate in a 1:1000 dilution (total volume 200 uL) and the plate sealed with clear adhesive plastic sealant. One row has been designated for uncultured media to be used for pre-blanking measurements and to ensure that the media isn’t growing spontaneously.
An experimental protocol was created using the Softmax Pro® software for a Molecular Devices Spectramax M5 plate reader. The parameters have been selected such that it collects pre-blanked absorbance readings at 600 nm wavelengths every 30 min at 37 °C with shaking every 10 min at 400 s intervals for 18 h total. Absorbance values were corrected for path length using the lateral reading path correction (8) and are plotted overtime to establish a growth curve.8 l=4×V/π×d^2 l = path length from Beer’s law ( A=εlc ), V = volume (cm^3), d = diameter of well (cm).
Data from the growth assay were analyzed using MATLAB R2018A. The derivative of the curve was calculated and the maximum rate as determined by the derivative was reported as the growth rate for that condition.

[1] = system: capsular polysaccharide (cps) band of E. coli K12 total lipid extract; experiment: Capsular polysaccharide band density on silver-stained gels; type: cell-based
Procedure: as §1
(§2) As previously established, lipid extraction occurs through lysis of surface polysaccharides with a lysis buffer containing 1% SDS, 20% glycerol, 100 mM Tris–HCl and 0.04% bromophenol blue at a pH 6.8[61]. The cellular concentrations from each well were determined using the last collected OD600 corrected using Eq. (8), centrifuged and resuspended in the correct volume of lysis buffer to obtain 4 × 10^8 cells/100 µL solution. Addition of Proteinase K at 1 mg/mL concentration was incubated for 1 h at 37 °C. These samples were then loaded onto a 15% separating, 6% stacking SDS–polyacrylamide gel (recipes received from https://www.bio-rad.com/) in a 19:1 acrylamide to bis-acrylamide ratio and run with a voltage gradient from 50–150 V. The gels were then stained using the protocol described previously with no modifications[62] and imaged using a scanner.
(§3) Relative LPS band density was determined using analysis methods provided by ImageJ software. The band pixel density were analyzed relative to a purified sample of heptosylated O-deacylated Lipid A at 100 nM. The plot was generated of relative band density vs. concentration of inhibitor[63].

HepI R63A = molecular target: T1, HepI R63A (Escherichia coli, UniProt P24173, R63A); experiment: HepI inhibition, ADP/NADH coupled assay (R63A mutant); type: biochemical, E. coli K12
T1 construct: made in house; host or cells: E. coli One Shot BL-21-AI (stated for HepI in general)
Procedure: (§4) As previously reported[11],[14],[15], an ADP/NADH coupled assay was used to monitor HepI activity by monitoring the absorbance change at 340 nm at 37 °C on a Cary Bio 100 UV–Vis Spectrometer. Under normal conditions, the assay buffer was composed of 50 mM HEPES, 50 mM KCl, 10 mM MgCl2, pH 7.5. The coupled enzyme reaction additionally contained 100 μM phosphoenolpyruvate, 100 μM NADH, 100 μM dithiothreitol (DTT) and 0.05 U/μL of both pyruvate kinase and lactate dehydrogenase. 100 μM ADPH was used when ODLA concentration was varied and 100 μM ODLA was used when ADPH was varied. Once a stable baseline was established (~ 5 min), the reaction was initiated by addition of HepI to a final concentration of 50 nM or 100 nM (for high and lower substrate concentrations respectively) and all reported reaction rates are after background subtraction. When running 12 samples at once, plastic cuvette stirs and a repeat pipettor was used to inject 200 μL enzyme. Inhibition of HepI was monitored using the same ADP/NADH coupled assay, all conditions of the assay were the same as previously described unless otherwise stated. Ki values for each of the compounds were determined by varying compound final concentration from 100 μm to 10 nm, and a final concentration of 10 μM ODLA. Competition assays against ADPH were done with excess ODLA (100 μM) and varying ADPH from 2–0.25 μM. Competition assays against ODLA were done with excess ADPH (100 μM) and varying ODLA from 2–0.25 μM. Reactions were started with addition of enzyme and inhibitor was varied from 30–0.01 μM. Kinetics were fit to Lineweaver-Burke (Eq. 1), competitive (Eq. 2), non-competitive (Eq. 3), mixed (Eq. 4), Dixon (Eq. 5), or Cornish-Bowden (Eq. 6) models. All fitting and plotting was done through MATLAB R2018A.1 1/V1/[S]=KM/Vmax[S]+1/Vmax 2 V[S]=Vmax[S]/KM1+[I]/Ki+[S] 3 V[S]=Vmax[S]/1+([I]/Ki)/KM+[S] 4 V[S]=Vmax[S]/KM(1+[I]/Ki)+[S](1+[I]/αKi) 5 1/V[I]=KM1+I/Ki+[S]1+I/αKi/Vmax[S] 6 [S]/V[I]=KM1+I/Ki+[S]1+I/αKi/Vmax

[2] = system: LPS production in E. coli K12; experiment: LPS visualization gels of lipid extracts from growth challenge samples; type: cell-based; details: for Concentration range over which LPS production decreases: E. coli K12, lipids from 4 × 10^8 cells; for IC50: Escherichia coli, E. coli K12, silver-stained gels, inflection point of sigmoid fit, read-out: IC50 of LPS production (LPS band pixel density)
Procedure: as §1, §2, §3

HepI R61A = molecular target: T2, HepI R61A (Escherichia coli, UniProt P24173, R61A); experiment: HepI inhibition, ADP/NADH coupled assay (R61A mutant); type: biochemical, E. coli K12
T2 construct: made in house; host or cells: E. coli One Shot BL-21-AI (stated for HepI in general)
Procedure: as §4

HepI K64A = molecular target: T3, HepI K64A (Escherichia coli, UniProt P24173, K64A); experiment: HepI inhibition, ADP/NADH coupled assay (K64A mutant); type: biochemical, E. coli K12
T3 construct: made in house; host or cells: E. coli One Shot BL-21-AI (stated for HepI in general)
Procedure: as §4

HepI R120A = molecular target: T4, HepI R120A (Escherichia coli, UniProt P24173, R120A); experiment: HepI inhibition, ADP/NADH coupled assay (R120A mutant); type: biochemical, E. coli K12
T4 construct: made in house; host or cells: E. coli One Shot BL-21-AI (stated for HepI in general)
Procedure: as §4

T4 sequence (P24173 whole entry R120A): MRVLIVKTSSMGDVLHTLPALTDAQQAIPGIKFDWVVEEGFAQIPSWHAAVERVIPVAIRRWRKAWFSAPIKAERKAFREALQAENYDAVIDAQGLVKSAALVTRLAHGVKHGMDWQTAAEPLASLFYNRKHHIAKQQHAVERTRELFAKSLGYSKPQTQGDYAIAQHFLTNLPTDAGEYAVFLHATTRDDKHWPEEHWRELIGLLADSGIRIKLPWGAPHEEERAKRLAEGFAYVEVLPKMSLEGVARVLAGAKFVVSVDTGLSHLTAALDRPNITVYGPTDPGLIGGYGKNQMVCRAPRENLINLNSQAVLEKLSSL
T2 sequence (P24173 whole entry R61A): as the sequence (P24173 whole entry R120A) above, with R61A, A120R counted along it
T1 sequence (P24173 whole entry R63A): as the sequence (P24173 whole entry R120A) above, with R63A, A120R counted along it
T3 sequence (P24173 whole entry K64A): as the sequence (P24173 whole entry R120A) above, with K64A, A120R counted along it

[H]/N=C(/N)N[C@H]1[C@H](O)[C@@H](O)[C@H](O[C@@H]2O[C@@H](C)[C@](O)(C=O)[C@H]2O[C@@H]2O[C@@H](CO)[C@H](O)[C@@H](O)[C@@H]2NC)[C@@H](N/C(N)=N\[H])[C@@H]1O [Streptomycin]
Inflection point in cell viability (E. coli K12): 25 ng/mL | Effect on growth of E. coli K12 (E. coli K12): challenges the growth | Relative pixel density from cps band ([1]; 12.5 ng/mL streptomycin, relative to 0 ng/mL = 1): 1.019 | Relative pixel density from cps band ([1]; 15 ng/mL streptomycin): 1.115 | Relative pixel density from cps band ([1]; 17.5 ng/mL streptomycin): 1.105 | Relative pixel density from cps band ([1]; 20 ng/mL streptomycin): 1.323 | Relative pixel density from cps band ([1]; 22.5 ng/mL streptomycin): 1.458 | Relative pixel density from cps band ([1]; 25 ng/mL streptomycin): 1.335 | Relative pixel density from cps band ([1]; 27.5 ng/mL streptomycin): 1.687 | Relative pixel density from cps band ([1]; 30 ng/mL streptomycin): 1.477 | Relative pixel density from cps band ([1]; 32.5 ng/mL streptomycin): 1.070 | Relative pixel density from cps band ([1]; 35 ng/mL streptomycin): 0.654 | Ki (HepI R63A): 6.66 ± 0.699 µM | ΔΔG (kcal/mol) Exp (HepI R63A; Arg63Ala relative to WT): 1.4 ± 0.1 kcal/mol | ΔG (kcal/mol) Exp (HepI R63A; Arg63Ala, from Ki): -7.1 ± 0.1 kcal/mol | kcat (HepI R63A; HepI R63A in presence of inhibitor): 0.198 ± 0.024 s⁻¹ | Ki relative to WT (HepI R63A; HepI R63A vs WT): increased the Ki values an order of magnitude | Concentration range over which LPS production decreases [2]: 25 to 27.5 ng/mL | IC50 [2]: 0.0262 ± 0.001 µg/mL (≈ 0.045 µM) | Ki (HepI R61A): 7.89 ± 3.59 µM | ΔΔG (kcal/mol) Exp (HepI R61A; Arg61Ala relative to WT): 1.5 ± 0.2 kcal/mol | ΔG (kcal/mol) Exp (HepI R61A; Arg61Ala, from Ki): -7.0 ± 0.2 kcal/mol | kcat (HepI R61A; HepI R61A in presence of inhibitor): 0.142 ± 0.031 s⁻¹ | Ki relative to WT (HepI R61A; HepI R61A vs WT): increased the Ki values an order of magnitude | Ki (HepI K64A): 5.76 ± 0.485 µM | kcat (HepI K64A; HepI K64A in presence of inhibitor): 0.117 ± 0.009 s⁻¹ | Ki relative to WT (HepI K64A; HepI K64A vs WT): increased the Ki values an order of magnitude | ΔΔG (kcal/mol) Exp (HepI K64A; Lys64Ala relative to WT): 1.3 ± 0.1 kcal/mol | ΔG (kcal/mol) Exp (HepI K64A; Lys64Ala, from Ki): -7.1 ± 0.1 kcal/mol

NC[C@H]1O[C@H](O[C@H]2[C@H](O)[C@@H](O[C@H]3O[C@H](CO)[C@@H](O)[C@H](N)[C@H]3O)[C@H](N)C[C@@H]2N)[C@H](N)C[C@@H]1O [Tobramycin]
Ki (HepI R120A): 0.422 ± 0.186 µM | ΔΔG (kcal/mol) Exp (HepI R120A; Arg120Ala relative to WT): -0.6 ± 0.2 kcal/mol | ΔG (kcal/mol) Exp (HepI R120A; Arg120Ala, from Ki): -8.7 ± 0.2 kcal/mol | Ki relative to WT (HepI R120A; HepI R120A vs WT): ~ twofold tighter; also recorded: lowering of the inhibition constant | Inflection point in cell viability (E. coli K12): around 6.5 ng/mL | Effect on growth of E. coli K12 (E. coli K12): challenges the growth | Relative pixel density from cps band ([1]; 4 ng/mL tobramycin, relative to 0 ng/mL = 1): 1.752 | Relative pixel density from cps band ([1]; 4.5 ng/mL tobramycin): 4.293 | Relative pixel density from cps band ([1]; 5 ng/mL tobramycin): 7.121 | Relative pixel density from cps band ([1]; 5.5 ng/mL tobramycin): 5.786 | Relative pixel density from cps band ([1]; 6 ng/mL tobramycin): 3.692 | Relative pixel density from cps band ([1]; 6.5 ng/mL tobramycin): 2.319 | Relative pixel density from cps band ([1]; 7 ng/mL tobramycin): 1.163 | Relative pixel density from cps band ([1]; 7.5 ng/mL tobramycin): 1.421 | Relative pixel density from cps band ([1]; 8 ng/mL tobramycin): 1.641 | Relative pixel density from cps band ([1]; 9 ng/mL tobramycin): 1.606 | Concentration at which no LPS is detectible ([2]; E. coli K12): ≥ 7.5 ng/mL | Concentration range over which LPS production decreases [2]: 5 to 7 ng/mL | IC50 [2]: 0.0064 ± 0.0001 µg/mL (≈ 0.0137 µM)
